In patent US20050170502A1, “Methods for maintaining hepatocytes in culture and for differentiating embryonic stem cells along a hepatocyte lineage” (REGENTS OF THE UNIVERSITY OF CALIFORNIA, priority 2003, published 2005):

Tested on: mouse ES cells (ES-D3)
Experiment: Hepatocyte-specific gene expression in differentiated mouse ES cells, real-time quantitative RT-PCR
Conditions: for albumin gene expression (effect of individual growth and differentiation factors): mouse ES cells, IMDM, collagen type I, day 33, FIG. 2A
Description: Mouse ES cell line ES-D3 and mouse STO fibroblasts were obtained from the American Type Culture Collection, Manassas, Va. ES cells were expanded on STO fibroblast feeder layers in Dulbecco's modified Eagle's medium (DMEM) (unless specified, cell culture supplies were from Invitrogen, Carlsbad, Calif.) containing 15% fetal bovine serum (FBS), 1 mM L-glutamine, 60 μM non-essential amino acid solution, 0.1 mM 2-mercaptoethanol, 10 mM HEPES (Sigma-Aldrich, Saint Louis, Mo.), 1400 U/ml leukemia inhibitory factor (LIF) (Chemicon International, Temecula, Calif.), and penicillin/streptomycin at standard concentrations. To prepare feeder layers, STO fibroblasts were cultured until confluent and treated with 10 μg/ml mitomycin C (Sigma-Aldrich) for 4 hours. Mitomycin C-treated STO fibroblasts were then re-seeded at a density of 7-8×10^4/cm^2 one day before plating ES cells. […] These culture conditions stimulated the formation of non-attached embryoid bodies (EBs): Five days later, EBs were placed on different substratum pre-coated 6-well tissue culture plates in various media formulations, and the expression of hepatocyte-specific genes was examined at day 8-75 (FIG. 1A). Substrata used for pre-coating included gelatin, collagen type I (Sigma-Aldrich), collagen type IV, laminin, fibronectin and poly-D-lysine (Becton Dickinson Labware, Bedford, Mass.). The following culture media were tested for ES cells differentiation: DMEM, Williams' medium E (WME), and Iscove's modified Dulbecco's medium (IMDM), all supplemented with 10 to 20% FBS, 0.3 mM monothioglycerol (Sigma-Aldrich), penicillin/streptomycin at standard concentrations, and a range of growth and differentiation factors including hepatocyte growth factor (HGF, 20 ng/ml), nerve growth factor (NGF, 100 ng/ml), epidermal growth factor (EGF, 100 ng/ml), acidic fibroblast growth factor (aFGF, 100 ng/ml), basic fibroblast growth factor (bFGF, 100 ng/ml) (Li, X. et al., J. Cell. Biol. 153:811-822 (2001)), all-trans-retinoic acid (RA, 1 μM) (Makita, T. et al., Genes. Dev. 15:889-901 (2001)), oncostatin M (OnM, 10 ng/ml) (Kamiya, A. et al., EMBO. J. 18:2127-2136 (1999)), bovine insulin (0.126 U/ml), dexamethasone (100 nM) (all from Sigma-Aldrich), and human insulin (0.126 U/ml) (Eli Lilly and Company, Indianapolis, Ind.). Growth and differentiation factors were added to the culture media at final concentrations as indicated above. In addition, EBs were also cultured in medium that was previously used to induce multipotent adult progenitor cells (MAPC) from mouse bone marrow to differentiate into functional hepatocyte-like cells (Schwartz, R. E. et al., J. Clin. Invest. 109:1291-1302 (2002)).
Total RNA was extracted with RNeasy Mini Kit (Qiagen, Valencia, Calif.). Real time quantitative RT-PCR was employed for the determination of gene expression as described in detail previously by our group (Wege, H. et al., Gastroenterology 124:432-444 (2003)). In brief, one μg RNA was used to generate cDNA after treatment with deoxyribonuclease I (Invitrogen). First-strand synthesis was performed employing the Thermoscript RT-PCR System (Invitrogen) with random hexamers. Relative mouse or human gene expression analysis (ΔΔCT) was performed by real-time quantitative PCR with the ABI Prism 7700 Sequence Detection System and SYBR PCR Green Master Mix or TaqMan PCR Master Mix (Applied Biosystems, Foster City, Calif.). Primer pairs and hybridization probes for mouse or human albumin, prealbumin (transthyretin), alphal-antitrypsin (α1-AT), glucose-6-phosphatase (G6P), cytokeratin 19 (CK19), γ-glutamyl transferase (GGT), and β-actin, were synthesized, and primer concentrations were optimized for specific amplification at 60° C. […] Expression levels were normalized using mouse β-actin or human glyceraldehyde phosphate dehydrogenase (GAPDH) as an endogenous control. Normalized expression of hepatocyte-specific genes was compared to levels detected in primary adult mouse or human hepatocytes.

Molecule: hEGF: human epidermal growth factor (NSDSECPLSHDGYCLHDGVCMYIEALDKYACNCVVGYIGERCQYRDLKWWELR; UniProt P01133 971-1023, looked up)
- albumin gene expression (effect of individual growth and differentiation factors): only minor positive or even negative effects

Molecule: mEGF: mouse epidermal growth factor (NSYPGCPSSYDGYCLNGGVCMHIESLDSYTCNCVIGYSGDRCQTRDLRWWELR; not fully specified; Epidermal growth factor; UniProt P01132 977-1029, looked up)
- albumin gene expression (effect of individual growth and differentiation factors): only minor positive or even negative effects

Molecule: HGF: hepatocyte growth factor
- albumin gene expression (effect of individual growth and differentiation factors): only minor positive or even negative effects

Molecule: aFGF: acidic fibroblast growth factor
- albumin gene expression (effect of individual growth and differentiation factors): only minor positive or even negative effects

Molecule: NGF: nerve growth factor
- albumin gene expression (effect of individual growth and differentiation factors): only minor positive or even negative effects

Molecule: human insulin: human insulin (Eli Lilly and Company), growth factor added to the culture medium
- production of hepatocyte-specific proteins compared with bovine insulin (also in murine ES cells): higher production
- albumin gene expression (effect of individual growth and differentiation factors): most effective

Molecule: CC1=C(/C=C/C(C)=C/C=C/C(C)=C/C(=O)O)C(C)(C)CCC1 [RA, all-trans-retinoic acid]
- albumin gene expression (effect of individual growth and differentiation factors): only minor positive or even negative effects

Molecule: bFGF: basic fibroblast growth factor
- albumin gene expression (effect of individual growth and differentiation factors): only minor positive or even negative effects

Molecule: C[C@@H]1C[C@H]2[C@@H]3CCC4=CC(=O)C=C[C@]4(C)[C@@]3(F)[C@@H](O)C[C@]2(C)[C@@]1(O)C(=O)CO [dexamethasone, 9-fluoro-11β,17,21-trihydroxy-16α-methylpregna-1,4-diene-3,20-dione]
- albumin gene expression (effect of individual growth and differentiation factors): most effective
